Source: patent US11135185B2, “Uses of curcumin derivative” (Merry Life Biomedical Company, Ltd., priority 2018, dated 2021)
Entries after “also recorded” stand apart in the source; their conditions may differ.

Legend:
[1] = system: Aβ production in N2a/APPswe cells; test: Amyloid β ELISA of culture medium of N2a/APPswe stable cell line; type: cell-based; settings: 24 h incubation, ELISA (FIG. 2)
Description: Extracellular levels of soluble Aβ40 and Aβ42 were determined by LEGEND MAX™ 3-Amyloid x-40 and X-42 ELISA Kit (Biolegend). N2A neuroblastoma cell line with stably over expressing APP Swedish mutation (APPswe) was designed as N2A/APPswe cell line (kindly grafted from Prof. Kuo, Yu-Min's Lab). 8×10^5 N2A/APPswe cells were seeded on a 6-cm dish. After overnight incubation, the cells were treated with curcumin or TML-6 for 24 h. The culture supernatant was collected and centrifuged at 1,500×g at 4° C. for 5 min to remove cells. The Aβ levels of the culture supernatants of various treatments were assayed according to the manufacture's instrumentations. The samples were detected at OD620 and the calculation of Aβ levels was based on the standard curves of Aβ40 and Aβ42, respectively.

[2] = system: Aβ levels in the brain of 3×Tg AD transgenic mice; test: Aβ immunofluorescence staining of brain sections of 3×Tg-AD transgenic mice; type: in vivo; settings: six-month-old 3×Tg AD mice fed 150 mg/kg for four months, immunofluorescence (FIG. 4)
Description: (§1) Triple-transgenic mice as a model of Alzheimer's disease (3×Tg-AD, APP Swedish, MAPT P301L, and PSEN1 M146V) were bred at the laboratory animal center of National Cheng Kung University (NCKU) [Oddo S, Caccamo A, Shepherd J D, Murphy M P, Golde T E, Kayed R, Metherate R, Mattson M P, Akbari Y, LaFerla F M: Triple-transgenic model of Alzheimer's disease with plaques and tangles: intracellular Abeta and synaptic dysfunction. Neuron 2003, 39(3):409-421]. Experimental procedures for handling the mice were in accordance with the guidelines of the Institutional Animal Care and Use Committee (IACUC) of NCKU. The mice were housed in a room maintained on a 12-h light-dark cycle and fed ad libitum. […] These mice developed plaque and tangle pathology. Aβ deposition as progressive deposition appeared as early as six months.
(§2) Mice were anesthetized and euthanized with 10% chloral hydrate (400 mg/kg, i.p.) and then transcardial perfusion was performed with 0.01 M PBS (pH 7.4). The brains were post-fixed in 4% PFA for 2 days and dehydrated with 30% sucrose at 4° C. The hydrated brain was embedded with optimal cutting temperature compound (OCT, Leica) and quick-frozen at −30° C. The blocks were sectioned at 16 um-thick. Slices were stored at −20° C. […] The images were captured by TissureFAXS microscopy system and positive signals were quantified by TissueQuest software module (TissueGnostic, Vienne, Austria).

APP = test: Western blotting of APP in Huh-7 cells; type: cell-based, human; settings: 24 h treatment, Western blotting (FIG. 1)
Description: The human hepatoma Huh-7 cell lines were obtained from the Health Science Research Resources Bank (JCRB0403; Osaka, Japan) and were cultured in Dulbecco's modified Eagle's medium (DMEM, Gibco) supplemented with 100 U/ml penicillin, 100 mg/ml streptomycin and 10% fetal bovine serum (FBS, Biological industry). Cells were cultured at 37° C. in a humidified atmosphere of 5% CO2 incubator (Forma Scientific, Marietta, Ohio, USA). The cells were seeded in 24-well, 6 or 10 cm dishes overnight the day before the experiment.
After cells were seeded and treated with curcumin and its derivatives for 24h, cells were washed with ice-cold PBS and lysed with 100 μL of RIPA lysis buffer (Pierce Biotechnology, Rockford, Ill., USA) supplemented with protease and phosphatase inhibitors (Roche Diagnostics, Mannheim, Germany). Cell lysates were further cleaned by centrifugation at 14000 rpm 4° C. for 15 min. Protein concentration was determined using a Bradford assay (Bio-Rad, Hercules, Calif., USA). For western blot analysis, 20 μg of each sample was prepared for SDS-PAGE and denatured at 95° C. for 10 min. The prepared samples from total lysates were loaded and separated by SDS-PAGE (8% or 10%), and then transferred to PVDF membranes (pore size 0.45 μm; PerkinElmer) by semi-dry transfer cell (Bio-Rad). […]

ApoE = test: Western blotting of ApoE in Huh-7 cells; type: cell-based, human; settings: 24 h treatment, Western blotting (FIG. 1)
Description: (§3) The human hepatoma Huh-7 cell lines were obtained from the Health Science Research Resources Bank (JCRB0403; Osaka, Japan) and were cultured in Dulbecco's modified Eagle's medium (DMEM, Gibco) supplemented with 100 U/ml penicillin, […] streptomycin and 10% fetal bovine serum (FBS, Biological industry). Cells were cultured at 37° C. in a humidified atmosphere of 5% CO2 incubator (Forma Scientific, Marietta, Ohio, USA). The cells were seeded in 24-well, 6 or 10 cm dishes overnight the day before the experiment. On the next day, the cells were treated with curcumin (Sigma) and TML-6. The stock concentration was prepared at 5 mg/mL (for curcumin) and 10 mM (for TML-6).
(§4) After cells were seeded and treated with curcumin and its derivatives for 24h, cells were washed with ice-cold PBS and lysed with 100 μL of RIPA lysis buffer (Pierce Biotechnology, Rockford, Ill., USA) supplemented with protease and phosphatase inhibitors (Roche Diagnostics, Mannheim, Germany). Cell lysates were further cleaned by centrifugation at 14000 rpm 4° C. for 15 min. Protein concentration was determined using a Bradford assay (Bio-Rad, Hercules, Calif., USA). For western blot analysis, 20 μg of each sample was prepared for SDS-PAGE and denatured at 95° C. for 10 min. […]

[3] = system: Iba-1 (microglial activation biomarker) in 3×Tg AD transgenic mice; test: Iba-1 immunofluorescence staining in 3×Tg-AD transgenic mice; type: in vivo; settings: six-month-old 3×Tg AD mice fed 150 mg/kg for four months, compared to curcumin (FIG. 5)
Description: as §1, §2

ApoE promoter = ApoE promoter luciferase reporter assay in Huh-7 cells; type: cell-based, human; settings: for luciferase activity of ApoE promoter: Huh-7, serial truncations of ApoE promoter from -1061/+45 to -154/+45, 24 h (FIG. 3C)
Description: The promoter region of human APOE gene has been identified and published [[…]]. We constructed ApoE promoter region from -1061 +45 in two-steps. The first fragment was amplified using polymerase chain reaction (PCR) by forward primer APOE-[…] ID NO: 1) paired with reverse primer APOE-R-BglII: [NT] ID NO: 2) and was ligated to the pGL3 basic vector (Promega, Madison, Wis., USA) by using Kpn I and Bgl II restriction sites. The second fragment was amplified using PCR by forward primer APOE-F-BglII: [NT] ID NO: 3) paired with reverse primer APOE-[…] ID NO: 4) and was ligated to the pGL3-basic (Promega) by using Bgl II and Hind III restriction sites. The serial deletion mutants of ApoE promoter, -705/+45, -456/+45, -344/+45, -247/+45, -154/+45 and -32/+45 were amplified using PCR and based on the full-length ApoE promoter (-1061/+45). The generated fragments were digested by Kpn I and Xba I and then inserted into the pGL3-basic vector (Promega). To generate the deletion mutants of ApoE promoter, primers were used to amplify the promoter for different lengths. The forward primers were APOE-705-[…] ID NO: 5), APOE-456-[…] ID NO: 6), APOE-344-[…] ID NO: 7), APOE-247-[…] ID NO: 8), APOE-154-[…] ID NO: 9), and APOE-32-[…] ID NO: 10) which were paired with reverse primer APOE-[…] ID NO: 4) to amplify the target region of the promoter. For disrupting the binding sites of PPAR and/or AP-2 on ApoE promoter, we conducted the point mutation method and the primers paired used were as follows: -154[…] ID NO: 11) paired with -154[…] ID NO: 12), -154[…] ID NO: 13) paired with -154[…] ID NO: 14), -154[…] ID NO: 15) paired with -154[…] ID NO: 16), -154[…] ID NO: 17) paired with -154[…] ID NO: 18). The pGL3-154/+45-ApoE-Luc was used as the template for PCR reaction to amplify the mutant of PPAR or AP-2 binding sites in the ApoE promoter. The PCR products were digested by Dpn I and transformed into TOP10 competent cells (Invitrogen, Carlsbad, Calif., USA). After LB plating and extraction of plasmids, positive colonies were confirmed by restriction enzyme digestion. All of the promoter constructs were verified by sequencing. The Huh-7 cells were seeded in 24-well culture plates and then co-transfected with serial deletion of pGL3-ApoE-Luc (firefly luciferase) with pRL-TK renilla luciferase reporter. Following overnight incubation, the transfected cells were treated with traditional curcumin, and TML-6 for an additional 24h. […] The relative luciferase units (RLU) were measured using a luminometer (GLOMAX Multi, Promega). […] The RLUs are expressed as means plus standard deviation of three independent experiments.

phospho-NF-κB = test: Western blotting of phospho-NF-κB in Huh-7 cells; type: cell-based, human; settings: 24 h treatment, Western blotting (FIG. 1)
Description: as §3, §4

soluble Aβ = settings: AD transgenic mouse, within hours, ApoE-dependent; cited from earlier work

SMILES	Aβ42/40 ratio [1]	production of Aβ40 [1]	production of Aβ42 [1]	Aβ levels in the brain [2]	protein expression level of APP (APP)	protein expression level of Apo E (ApoE)	expression of Iba-1 (brain inflammation) [3]	ApoE promoter activity after disruption of proximal PPARα/RXRα and AP2 binding sites (ApoE promoter; Huh-7, -154/+45 mutants MdelAP2 and MdelPPAR, 24 h (FIG. 3E))	luciferase activity of ApoE promoter (ApoE promoter)	promoter activity of ApoE-154MdelAP2/+45 mutant compared with wild-type -154/+45 (ApoE promoter; Huh-7, siRNA knockdown experiment, 24 h (FIG. 3F))	protein expression level of phospho-NF-κB (phospho-NF-κB)	clearance of soluble Aβ (soluble Aβ)
CCN(CC)C(=O)CC(C)(C(=O)/C=C/c1ccc(OC)c(OC)c1)C(=O)/C=C/c1ccc(OC)c(OC)c1 [TML-6]	significantly suppresses	significantly suppresses	significantly suppresses	significantly better activity than curcumin; also recorded: significantly decrease	decreased in a dose-dependent manner	significantly increased	significantly better activity than curcumin; also recorded: significantly inhibited	significantly suppressed	gradually increases	suppressed	decreased in a dose-dependent manner	–
C=C(c1ccc(C(=O)O)cc1)c1cc2c(cc1C)C(C)(C)CCC2(C)C [bexarotene]	–	–	–	–	–	–	–	–	–	–	–	enhanced clearance
COc1cc(/C=C/C(=O)CC(=O)/C=C/c2ccc(O)c(OC)c2)ccc1O [curcumin, diferuloyl methane]	–	–	–	–	inhibit the APP synthesis	upregulate ApoE	–	–	gradually increases	–	inhibit NFκB	–
